We go through three compounds from US10883992B2, “Universal kinase substrates and methods of use thereof” (Regents of the University of Minnesota, priority 2018, dated 2021).

Entries after “also recorded” stand apart in the source; their conditions may differ. Ends that are not written are not given here. Peptide text beside a SMILES is read from it. * marks the point of attachment. Biotin = O=C1N[C@H]2[C@H](CS[C@H]2CCCCC(=O)*)N1

Holding throughout (assay type): biochemical
One experiment concerns panel of 15 PTKs. Briefly: Universal kinase substrate screen of the pilot library, [γ-33P]ATP incorporation. The following applies: biotinylated peptides 10 μM; for phosphorylation by the panel of PTKs: 50 μM ATP, 30° C., 30 min, 15 PTKs; for average phosphorylation across the kinase panel: averaged over 15 PTKs (FIG. 1B). The protocol: This pilot library was then subjected to an initial screen to test their phosphorylation by a panel of 15 PTKs that included 12 non-receptor TKs (representing all 10 NRTK families) and 3 receptor TKs (representing 3 RTK families). Pilot peptides were assayed alongside several previously reported substrates that were designed to be specific to individual kinases. Conversion to product was monitored via incorporation of phosphate from [γ-^33P] radiolabeled adenosine triphosphate (ATP). These intensities were normalized to background and visualized as a heat map in FIG. 1. […] By contrast, as previously reported, peptides that had been designed to specifically target individual kinases had more restricted reactivity.
(§1) Biotinylated peptides (10 μM final concentration) were arrayed in a 384-well plate in 18 μL reaction buffer (50 mM HEPES, pH 7.5, 150 mM NaCl, 10 mM MgCl2, 1 mM DTT, 0.1% v/v Tween-20). Reactions were initiated by adding […] kinase (to 3-9 ng/μL) and [γ-^33P] ATP (to 50 μM, 0.025 μCi/μL) in reaction buffer. Plates were sealed and incubated at 30° C. for 30 min, and then 2 μL aliquots were transferred to streptavidin membrane (Promega SAM2 biotin capture membrane) using a pin-tool. […] Incorporation of radiolabel was quantified by phosphor imaging using QuantityOne software (Bio-Rad). After background correction, data were normalized such that the peptide with the greatest signal was 100%. Normalized data from at least two separate experiments were averaged and converted to heatmaps using Excel (Microsoft).

The target of another experiment is T1, Syk (Homo sapiens, UniProt P43405).
T1 construct: GST; made in house; host or cells: HEK293T cells
Briefly: Michaelis-Menten kinetic analysis of substrate peptides, [γ-33P]ATP radiolabel incorporation.
Text: (§2) The mammalian expression vector to produce the intracellular portion of human FLT3 fused to GST (GST-FLT3^564-993) was generated by PCR amplifying the encoding sequence and subcloning into the BamHI and NotI sites of pEBG-2T. Mammalian expression vectors to produce BTK, SRC and SYK as GST fusion proteins were previously described. GST-tagged kinases were expressed in HEK293T cells and purified by affinity chromatography using glutathione Sepharose 4B as described (Deng, et al., Journal of Proteome Research 2014, 13, 4339). His6-EGFR^672-998 (“His6” disclosed SEQ ID NO: 25) and His6-ALK^1090-1416 (“His6” disclosed SEQ ID NO: 25) were expressed and purified from Sf9 insect cells as described (Park, et al., Biochemical Journal 2012, 448, 417; Bresler, et al., Science Translational Medicine 2011, 3, 108ra114). Human ABL was purchased from Life Technologies.
as §1
(§3) Final kinase concentrations were as follows: 0.3 ng/μL for ABL, BTK, SRC and SYK; 1.5 ng/μL for FLT3; 2.7 ng/μL for ALK and EGFR. At various incubation times (10, 20 and 30 min), 2 μL aliquots were transferred using a pin tool to P81 phosphocellulose paper (Reaction Biology), which was washed three times in 75 mM H3PO4, briefly washed in acetone and allowed to dry before exposing to a phosphor screen. Incorporation of radiolabel into peptides was quantified as above. After background correction, initial rates of reaction were determined by linear regression and fit to the Michaelis-Menten equation using Prism (GraphPad). […] Reported kinetic parameters are the average of three separate experiments except for FLT3 (two experiments).

In another experiment the target is T2, ALK (His6-ALK 1090-1416) (Homo sapiens, UniProt Q9UM73).
T2 construct: His6-ALK^1090-1416; His6 (N); made in house; host or cells: Sf9 insect cells
Described as above. The following applies: for kcat: lower limit extrapolated from kcat/Km.
Text: as §2, §1, §3

In a further experiment the target is T3, FLT3 (GST-FLT3 564-993) (Homo sapiens, UniProt P36888).
T3 construct: human FLT3 fused to GST (GST-FLT3^564-993); GST (N); made in house; host or cells: HEK293T cells
T3 sequence (P36888 564-993): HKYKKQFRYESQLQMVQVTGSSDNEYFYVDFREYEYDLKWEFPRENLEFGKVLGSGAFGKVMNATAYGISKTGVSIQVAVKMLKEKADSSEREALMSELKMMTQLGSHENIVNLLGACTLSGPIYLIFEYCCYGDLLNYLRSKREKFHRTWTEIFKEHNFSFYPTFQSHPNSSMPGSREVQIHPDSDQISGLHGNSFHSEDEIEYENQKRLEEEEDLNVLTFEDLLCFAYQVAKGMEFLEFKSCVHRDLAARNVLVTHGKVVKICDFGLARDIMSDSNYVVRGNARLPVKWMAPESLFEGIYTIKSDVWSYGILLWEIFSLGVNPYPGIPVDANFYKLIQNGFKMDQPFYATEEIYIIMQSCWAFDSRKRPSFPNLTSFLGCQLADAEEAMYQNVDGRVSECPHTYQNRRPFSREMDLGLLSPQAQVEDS
The experiment is described as above. The following applies: for kcat: mean ± sem of fits.
Text: as §2, §1, §3

The next experiment concerns the target T4, BTK (Homo sapiens, UniProt Q06187).
T4 construct: GST; made in house; host or cells: HEK293T cells
The experiment is described as above. The following applies: for kcat: mean ± sem of fits.
Text: as §2, §1, §3

The next experiment addresses T5, Src (Homo sapiens, UniProt P12931).
T5 construct: GST; made in house; host or cells: HEK293T cells
Described as above. The following applies: for kcat: lower limit extrapolated from kcat/Km.
Text: as §2, §1, §3

The next experiment addresses T6, Abl (Homo sapiens, UniProt P00519).
T6 construct: purchased Life Technologies
Described as above.
Text: as §2, §1, §3

The target in another experiment is T7, EGFR (His6-EGFR 672-998) (Homo sapiens, UniProt P00533).
T7 construct: His6-EGFR^672-998; His6 (N); made in house; host or cells: Sf9 insect cells
The description is as above. The following applies: for kcat: lower limit extrapolated from kcat/Km.
Text: as §2, §1, §3

Where [1] appears, read: lower limit extrapolated from kcat/Km.
Where [2] appears, read: peptide 2 relative to peptide 5.

T2 sequence (Q9UM73 1090-1416): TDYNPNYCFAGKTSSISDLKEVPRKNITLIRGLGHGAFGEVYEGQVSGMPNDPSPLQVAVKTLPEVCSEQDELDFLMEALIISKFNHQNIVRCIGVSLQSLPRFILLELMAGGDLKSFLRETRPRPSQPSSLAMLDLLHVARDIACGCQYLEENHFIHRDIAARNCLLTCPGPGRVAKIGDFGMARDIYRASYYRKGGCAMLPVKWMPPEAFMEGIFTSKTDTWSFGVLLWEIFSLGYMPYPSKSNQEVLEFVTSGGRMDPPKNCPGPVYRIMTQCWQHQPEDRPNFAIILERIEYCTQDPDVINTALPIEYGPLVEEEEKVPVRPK
T6 sequence (P00519 whole entry): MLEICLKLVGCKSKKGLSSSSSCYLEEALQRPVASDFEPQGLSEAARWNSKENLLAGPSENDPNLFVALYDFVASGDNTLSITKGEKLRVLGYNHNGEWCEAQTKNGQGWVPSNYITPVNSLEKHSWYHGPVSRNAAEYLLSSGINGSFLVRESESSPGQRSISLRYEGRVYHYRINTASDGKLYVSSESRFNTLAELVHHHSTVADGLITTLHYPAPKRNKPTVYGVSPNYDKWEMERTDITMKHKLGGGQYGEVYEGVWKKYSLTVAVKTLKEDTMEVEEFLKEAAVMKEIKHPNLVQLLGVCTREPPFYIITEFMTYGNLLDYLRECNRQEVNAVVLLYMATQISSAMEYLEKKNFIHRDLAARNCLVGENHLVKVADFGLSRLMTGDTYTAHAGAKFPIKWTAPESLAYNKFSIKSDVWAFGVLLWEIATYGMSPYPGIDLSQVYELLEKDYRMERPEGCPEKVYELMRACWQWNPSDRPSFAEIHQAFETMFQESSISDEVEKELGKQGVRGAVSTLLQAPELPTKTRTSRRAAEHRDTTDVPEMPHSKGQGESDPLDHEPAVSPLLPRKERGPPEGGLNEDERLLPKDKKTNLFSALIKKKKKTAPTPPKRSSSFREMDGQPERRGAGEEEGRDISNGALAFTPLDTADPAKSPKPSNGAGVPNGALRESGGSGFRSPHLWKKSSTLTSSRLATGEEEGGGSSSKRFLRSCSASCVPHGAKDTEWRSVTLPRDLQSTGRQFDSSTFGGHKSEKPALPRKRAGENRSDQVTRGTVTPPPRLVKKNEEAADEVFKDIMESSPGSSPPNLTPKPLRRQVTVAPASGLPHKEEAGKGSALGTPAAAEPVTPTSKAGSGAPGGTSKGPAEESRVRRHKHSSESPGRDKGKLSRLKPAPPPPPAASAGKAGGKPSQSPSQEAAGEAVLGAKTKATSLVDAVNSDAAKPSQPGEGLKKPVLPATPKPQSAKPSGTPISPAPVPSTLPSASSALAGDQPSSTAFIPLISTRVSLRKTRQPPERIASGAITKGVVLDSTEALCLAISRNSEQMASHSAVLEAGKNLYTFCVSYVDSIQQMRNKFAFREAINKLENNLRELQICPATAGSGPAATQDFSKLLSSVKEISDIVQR
T4 sequence (Q06187 whole entry, species assumed): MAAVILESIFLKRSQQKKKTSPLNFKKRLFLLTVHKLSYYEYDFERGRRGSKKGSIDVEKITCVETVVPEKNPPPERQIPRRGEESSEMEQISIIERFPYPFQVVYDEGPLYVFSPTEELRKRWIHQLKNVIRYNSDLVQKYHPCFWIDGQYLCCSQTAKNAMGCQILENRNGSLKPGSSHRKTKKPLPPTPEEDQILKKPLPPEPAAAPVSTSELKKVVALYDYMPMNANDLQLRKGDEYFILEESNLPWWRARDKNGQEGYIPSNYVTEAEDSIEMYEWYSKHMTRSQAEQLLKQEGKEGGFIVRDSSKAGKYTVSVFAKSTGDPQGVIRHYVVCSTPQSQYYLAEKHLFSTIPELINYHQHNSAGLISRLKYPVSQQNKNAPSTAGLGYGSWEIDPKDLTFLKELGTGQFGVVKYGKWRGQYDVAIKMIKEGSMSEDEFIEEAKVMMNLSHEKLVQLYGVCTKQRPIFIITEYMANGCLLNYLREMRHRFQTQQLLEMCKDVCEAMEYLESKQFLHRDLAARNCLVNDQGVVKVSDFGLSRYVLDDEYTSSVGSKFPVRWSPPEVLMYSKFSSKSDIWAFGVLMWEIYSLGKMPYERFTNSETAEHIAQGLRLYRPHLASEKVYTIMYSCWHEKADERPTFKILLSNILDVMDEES

For the compound “DEPIYDTVEGGKbiotinGG (DEPIYDTVEGGK(Biotin)GG) [Peptide 6]”, the “phosphorylation by the panel of PTKs” value in the experiment on panel of 15 PTKs was “phosphorylated by every PTK tested”.
As a reminder, the kcat is the number of substrate molecules converted per active site and unit of time at saturation. As to `CC[C@H](C)[C@H](NC(=O)[C@H](C)NC(=O)[C@H](CCC(=O)O)NC(=O)[C@@H](N)CC(=O)O)C(=O)N[C@@H](Cc1ccc(O)cc1)C(=O)N[C@@H](C)C(=O)N[C@H](C(=O)N[C@H](C(=O)N[C@@H](C)C(=O)NCC(=O)NCC(=O)N[C@@H](CCCCNC(=O)CCCC[C@@H]1SC[C@@H]2NC(=O)N[C@@H]21)C(=O)NCC(=O)NCC(N)=O)C(C)C)[C@@H](C)O` [Peptide 5] (H-DEAIYATVAGGK(Biotin)GG-NH2), in the experiment with panel of 15 PTKs, the “phosphorylation by the panel of PTKs” value is “phosphorylated by every PTK tested”. The “average phosphorylation across the kinase panel” value in the experiment with panel of 15 PTKs is listed as “highest average rate of phosphorylation across the entire panel of kinases; also recorded: highest phosphorylation averaged across the kinase panel”. The kcat on Syk (setting [1]) is more than 0.1 s⁻¹; on ALK (His6-ALK 1090-1416), more than 0.02 s⁻¹; on FLT3 (GST-FLT3 564-993) it was 0.014 ± 0.004 s⁻¹; at BTK, 0.26 ± 0.08 s⁻¹; on Src, more than 2 s⁻¹; on Abl (mean ± sem of fits) it was 16.5 ± 3.5 s⁻¹. On EGFR (His6-EGFR 672-998), the kcat was more than 0.001 s⁻¹.
With `CC[C@H](C)[C@H](NC(=O)[C@@H]1CCCN1C(=O)[C@H](CC(=O)O)NC(=O)[C@@H](N)CCC(=O)O)C(=O)N[C@@H](Cc1ccc(O)cc1)C(=O)N[C@H](C(=O)N[C@H](C(=O)N[C@@H](CC(C)C)C(=O)N[C@@H](CCC(=O)O)C(=O)NCC(=O)NCC(=O)N[C@@H](CCCCNC(=O)CCCC[C@@H]1SC[C@@H]2NC(=O)N[C@@H]21)C(=O)NCC(=O)NCC(N)=O)[C@@H](C)O)C(C)C` [Peptide 2] (H-EDPIYVTLEGGK(Biotin)GG-NH2), in the experiment on panel of 15 PTKs, the “phosphorylation by the panel of PTKs” value is “phosphorylated by every PTK tested”. Also, the “average phosphorylation across the kinase panel” value with panel of 15 PTKs is recorded as “highest average rate of phosphorylation across the entire panel of kinases; also recorded: highest phosphorylation averaged across the kinase panel”. For the same compound, the “2/5 kcat/Km ratio” value on Syk (setting [2]) is given as 1.8 ± 0.2; at ALK (His6-ALK 1090-1416) (setting [2]) it was 1.23 ± 0.02; on FLT3 (GST-FLT3 564-993) (setting [2]), 1.43 ± 0.07; at BTK (setting [2]) it was 0.31 ± 0.01; on Src (setting [2]), 0.52 ± 0.07; at Abl (setting [2]), 0.13 ± 0.01. Besides, the “2/5 kcat/Km ratio” value on EGFR (His6-EGFR 672-998) (setting [2]) is recorded as 5.8 ± 0.2. Moreover, the catalytic constant (kcat) is more than 0.02 s⁻¹ on ALK (His6-ALK 1090-1416); 0.013 ± 0.004 s⁻¹ at FLT3 (GST-FLT3 564-993); 0.061 ± 0.019 s⁻¹ at BTK; more than 40 s⁻¹ at Src; more than 4 s⁻¹ at Abl (setting [1]); more than 0.005 s⁻¹ on EGFR (His6-EGFR 672-998).
